The record followed here is patent publication US7033583B2, “Polymeric thiol-linked prodrugs” (Enzon Pharmaceuticals, Inc., priority 2001, dated 2006).

For orientation: IC50 means the midpoint of a concentration-inhibition curve.

In experiment [1] the test system is Lung M109 Syngeneic Solid Tumors. The experiment can be described thus: In vivo efficacy against M109 solid tumors. Also noted: species or system Balb/C mice. The following applies: i.v. day 1 & 4; for T/C (%) at Day 25: control median tumor ~2000 mm^3. As to the method:
M109 cells (NCI), derived from donor mice, were grown and expanded in tissue culture for in vivo implantation. Cells were grown in EMEM with 10% FBS and 1% streptomycin/penicillin media, kept in an incubator at 37° C. with 5% CO2 and split twice a week. Cells were trypsinized, harvested, washed, counted and prepared in PBS for transport to the vivarium. Cells were kept on ice until implantation was conducted with minimum lag time. A cell suspension of approximately 5×10^6 cells/mL was used. Balb/C mice were implanted subcutaneous with 100 μL of the above cell suspension (Day 0). Treatments were administered intravenously on Day 1 and Day 4. Compound doses were based on the content of 6-MP. Body weight and tumor volume were then measured twice weekly until the group's median tumor volume exceeded 2000 mm^3. The tumor volume for each mouse was determined by measuring two dimensions with calipers and calculated using the formula: tumor volume=(length×width^2)/2. Drug effects were determined by comparing tumor growth in treated versus control (no vehicle) mice. Three types of endpoints were used as the basis for comparison: (a) the percent difference in tumor volume (% T/C), measured when the control group's median tumor volume reached approximately 800–1100 mm^3 (exponential growth phase), (b) again when the control group's median tumor volume was approximately 2000 mm^3 and (c) the number of tumor regression (smaller tumor volume on Day 25 compared to Day 1) per group.

The test system of experiment [2] is P388/0 cell lines. The experiment can be described thus: Cytotoxicity assay (Alamar Blue) in P388/0 cells. The following applies: Mus musculus, 72 h, 3 days. Format: cell-based. As to the method:
Cell Lines and Cytotoxicity Assays. Studies using P388/0 cell lines for IC50 (drug concentration inhibiting growth of cells by 50%) were maintained and conducted as previously reported. Briefly, for IC50 determination, cells were seeded into the microwell plates at a density of 2×10^3 cells per 50 μL per well. Plates were incubated at 37° C. in a humidified incubator with 5% CO2 for 3 days. Cell growth was measured by the addition of 10 μL/well of Alamar Blue (Alamar Biosciences, Inc., Sacramento, Calif.) and the plates were incubated a further 4 h at 37° C. The IC50 values for each compound were determined from absorbance versus dilution factor plots. All cell cultures for animal implantation were maintained at 37° C. in a humidified atmosphere of 5% CO2/95% O2 and subcultured once a week. All cell lines were periodically tested for Mycoplasma and were Mycoplasma free.
Background: The colour change of resazurin is a common sign of viable cells or microbes.

Structures are written as SMILES.

Consider `Sc1ncnc2nc[nH]c12` [Compound 1, 6-mercaptopurine, reference compound], for which the “inhibiting the growth of M109 solid tumors” value in experiment [1] (Balb/C mice) is “ineffective”. For the same molecule, in experiment [1] (total dose 60 mg/kg (6-MP content), control median tumor ~1000 mm^3), the “T/C (%) at Day 18” value is reported as 127.1%. Besides, the “T/C (%) at Day 25” value stood at 122.0% in experiment [1] (total dose 60 mg/kg (6-MP content)) and 183.8% in experiment [1] (total dose 200 mg/kg). 2670 nM corresponded to half-maximal inhibition in experiment [2] (IC50).
